# Legend:
# Format in all cases: in vivo
# ABUTILON THEOPHRASTI [1] = assay: Compound (A) with S-metolachlor, weed plots
# From the text: […] The compositions were formulated as an emulsifyable concentrate (EC).
# (§1) The results in the table under each application are the percentage of the plants that were killed.
# Cyperus = assay: Compound (A) with sulcotrione, weed plots; settings: 14 DAA, Trial 5.1
# Description: In these tests, various weeds were treated with sulcotrione alone at an application rate equivalent to 1420 g per hectare, […] and Compound (A) at rates equivalent to the sum of these. The compositions were formulated as an emulsifyable concentrate (EC).
# as §1
# Galium = assay: Compound (A) with prosulfuron, weed plots; settings: 13 DAA, No. 3.24
# From the text: (§2) In these tests, […] and Compound (A) at rates equivalent to the sum of these. The compositions were formulated as an emulsifiable concentrate (EC).
# (§3) The results in the tables under each application are the percentage of the plants that were killed.
# Corn = assay: Compound (A) with prosulfuron, weed plots; settings: 13 DAA, No. 3.26
# From the text: as §2, §3
# AMBROSIA TRIFIDA = assay: Compound (A) with nicosulfuron, weed plots; settings: 28 DAA, No. 3.15
# Description: (§4) In these tests, various weeds were treated with nicosulfuron alone at a rate equivalent to 35 g per hectare, […] and Compound (A) at rates equivalent to the sum of these. The compositions were formulated as an emulsifyable concentrate (EC).
# as §1
# CYPERUS ESCULENTUS = assay: Compound (A) with nicosulfuron, weed plots
# Description: as §4, §1
# […] = Compound (A) with nicosulfuron, weed plots; settings: 58 DAA, No. 3.12
# Description: as §4, §1
# IPOMOEA SP. = assay: Compound (A) with nicosulfuron, weed plots; settings: 5 DAA, No. 3.10
# Description: as §4, §1
# C[…]. = assay: Compound (A) with nicosulfuron, weed plots; settings: 5 DAA, No. 3.8
# Description: as §4, §1
# ABUTILON THEOPHRASTI [2] = assay: Compound (A) with nicosulfuron, weed plots; settings: 27 DAA, No. 3.13
# Description: as §4, §1
# BRACHIARIA PLATYPHYLLA = assay: Compound (A) with nicosulfuron, weed plots
# Description: as §4, §1
# DIGITARIA SANGUINALIS = assay: Compound (A) with glyphosate, weed plots; settings: 52 DAA, No. 2.2
# From the text: (§5) The compositions were formulated as an emulsifyable concentrate (EC).
# as §1
# HORDEUM PUSILLUM = assay: Compound (A) with glyphosate, weed plots; settings: 13 DAA, No. 2.6
# From the text: as §5, §1
# CYPERUS SP. = assay: Compound (A) with glyphosate, weed plots
# From the text: as §5, §1
# CYNODON DACTYLON = assay: Compound (A) with glyphosate, weed plots; settings: 82 DAA, No. 2.1
# From the text: as §5, §1
# CYPERUS ROTUNDUS = assay: Compound (A) with glyphosate, weed plots; settings: 2 DAA, No. 2.5
# From the text: as §5, §1
# AMBROSIA ARTEMISIIFOLIA = assay: Compound (A) with S-metolachlor, weed plots
# Description: (§6) In these tests, various weeds were treated with S-metolachlor (SMOC) alone at an application rate equivalent to 1420 g per hectare, Compound (A) alone at rates equivalent to 20 g per hectare and […] and with mixtures of S-metolachlor and the Compound (A) at rates equivalent to the sum of these. The compositions were formulated as an emulsifyable concentrate (EC).
# as §1
# C[…] = assay: Compound (A) with S-metolachlor, weed plots
# Description: as §6, §1
# COMMELINA SP. = assay: Compound (A) with nicosulfuron, weed plots
# From the text: In these tests, […] and Compound (A) at rates equivalent to the sum of these. The compositions were formulated as an emulsifyable concentrate (EC).
# as §1
smiles,measurement,setting,value
CCOC(=O)COc1ncccc1Oc1cc(-n2c(=O)cc(C(F)(F)F)n(C)c2=O)c(F)cc1Cl [Compound (A)],percentage of the plants that were killed,"ABUTILON THEOPHRASTI [1]; 20 g/ha, 15 DAA, Trial 4.12",25%
same,percentage of the plants that were killed,"ABUTILON THEOPHRASTI [1]; 20 g/ha, 23 DAA, Trial 4.3",43%
same,percentage of the plants that were killed,"ABUTILON THEOPHRASTI [1]; 20 g/ha, 38 DAA, Trial 4.4",35%
same,percentage of the plants that were killed,"ABUTILON THEOPHRASTI [1]; 20 g/ha, 56 DAA, Trial 4.13",0%
same,percentage of the plants that were killed,"ABUTILON THEOPHRASTI [1]; 40 g/ha, 15 DAA, Trial 4.12",88%
same,percentage of the plants that were killed,"ABUTILON THEOPHRASTI [1]; 40 g/ha, 23 DAA, Trial 4.3",78%
same,percentage of the plants that were killed,"ABUTILON THEOPHRASTI [1]; 40 g/ha, 38 DAA, Trial 4.4",70%
same,percentage of the plants that were killed,"ABUTILON THEOPHRASTI [1]; 40 g/ha, 56 DAA, Trial 4.13",13%
same,percentage of the plants that were killed,Cyperus; 1.25 g/ha,50%
same,percentage of the plants that were killed,Cyperus; 5 g/ha,50%
same,percentage of the plants that were killed,Galium; 1.25 g/ha,50%
same,percentage of the plants that were killed,Galium; 2.5 g/ha,50%
same,percentage of the plants that were killed,Galium; 5 g/ha,100%
same,percentage of the plants that were killed,Corn; 1.25 g/ha,70%
same,percentage of the plants that were killed,Corn; 2.5 g/ha,90%
same,percentage of the plants that were killed,Corn; 5 g/ha,98%
same,percentage of the plants that were killed,AMBROSIA TRIFIDA; 5 g/ha,50%
same,percentage of the plants that were killed,AMBROSIA TRIFIDA; 10 g/ha,50%
same,percentage of the plants that were killed,AMBROSIA TRIFIDA; 20 g/ha,60%
same,percentage of the plants that were killed,"CYPERUS ESCULENTUS; 5 g/ha, 7 DAA, No. 3.7",40%
same,percentage of the plants that were killed,"CYPERUS ESCULENTUS; 5 g/ha, 12 DAA, No. 3.9",0%
same,percentage of the plants that were killed,"CYPERUS ESCULENTUS; 10 g/ha, 7 DAA, No. 3.7",60%
same,percentage of the plants that were killed,"CYPERUS ESCULENTUS; 10 g/ha, 12 DAA, No. 3.9",0%
same,percentage of the plants that were killed,"CYPERUS ESCULENTUS; 20 g/ha, 7 DAA, No. 3.7",60%
same,percentage of the plants that were killed,"CYPERUS ESCULENTUS; 20 g/ha, 12 DAA, No. 3.9",30%
same,percentage of the plants that were killed,[…]; 5 g/ha,50%
same,percentage of the plants that were killed,[…]; 10 g/ha,70%
same,percentage of the plants that were killed,[…]; 20 g/ha,97%
same,percentage of the plants that were killed,IPOMOEA SP.; 5 g/ha,30%
same,percentage of the plants that were killed,IPOMOEA SP.; 10 g/ha,80%
same,percentage of the plants that were killed,IPOMOEA SP.; 20 g/ha,95%
same,percentage of the plants that were killed,C[…].; 5 g/ha,20%
same,percentage of the plants that were killed,C[…].; 10 g/ha,30%
same,percentage of the plants that were killed,C[…].; 20 g/ha,95%
same,percentage of the plants that were killed,ABUTILON THEOPHRASTI [2]; 5 g/ha,0%
same,percentage of the plants that were killed,ABUTILON THEOPHRASTI [2]; 10 g/ha,98%
same,percentage of the plants that were killed,ABUTILON THEOPHRASTI [2]; 20 g/ha,99%
same,percentage of the plants that were killed,"BRACHIARIA PLATYPHYLLA; 5 g/ha, 24 DAA, No. 3.16",0%
same,percentage of the plants that were killed,"BRACHIARIA PLATYPHYLLA; 5 g/ha, 30 DAA, No. 3.17",0%
same,percentage of the plants that were killed,"BRACHIARIA PLATYPHYLLA; 10 g/ha, 24 DAA, No. 3.16",0%
same,percentage of the plants that were killed,"BRACHIARIA PLATYPHYLLA; 10 g/ha, 30 DAA, No. 3.17",0%
same,percentage of the plants that were killed,"BRACHIARIA PLATYPHYLLA; 20 g/ha, 24 DAA, No. 3.16",0%
same,percentage of the plants that were killed,"BRACHIARIA PLATYPHYLLA; 20 g/ha, 30 DAA, No. 3.17",0%
same,percentage of the plants that were killed,DIGITARIA SANGUINALIS; 10 g/ha,0%
same,percentage of the plants that were killed,DIGITARIA SANGUINALIS; 20 g/ha,0%
same,percentage of the plants that were killed,HORDEUM PUSILLUM; 10 g/ha,60%
same,percentage of the plants that were killed,HORDEUM PUSILLUM; 20 g/ha,70%
same,percentage of the plants that were killed,"CYPERUS SP.; 10 g/ha, 1 DAA, No. 2.3",0%
same,percentage of the plants that were killed,"CYPERUS SP.; 10 g/ha, 52 DAA, No. 2.4",0%
same,percentage of the plants that were killed,"CYPERUS SP.; 20 g/ha, 1 DAA, No. 2.3",0%
same,percentage of the plants that were killed,"CYPERUS SP.; 20 g/ha, 52 DAA, No. 2.4",0%
same,percentage of the plants that were killed,CYNODON DACTYLON; 10 g/ha,0%
same,percentage of the plants that were killed,CYNODON DACTYLON; 20 g/ha,0%
same,percentage of the plants that were killed,CYPERUS ROTUNDUS; 10 g/ha,40%
same,percentage of the plants that were killed,CYPERUS ROTUNDUS; 20 g/ha,75%
same,percentage of the plants that were killed,"AMBROSIA ARTEMISIIFOLIA; 20 g/ha, 25 DAA, Trial 4.7",47%
same,percentage of the plants that were killed,"AMBROSIA ARTEMISIIFOLIA; 20 g/ha, 49 DAA, Trial 4.8",30%
same,percentage of the plants that were killed,"AMBROSIA ARTEMISIIFOLIA; 40 g/ha, 25 DAA, Trial 4.7",79%
same,percentage of the plants that were killed,"AMBROSIA ARTEMISIIFOLIA; 40 g/ha, 49 DAA, Trial 4.8",69%
same,percentage of the plants that were killed,"C[…]; 20 g/ha, 26 DAA, Trial 4.5",80%
same,percentage of the plants that were killed,"C[…]; 20 g/ha, 54 DAA, Trial 4.6",0%
same,percentage of the plants that were killed,"C[…]; 20 g/ha, 56 DAA, Trial 4.11",0%
same,percentage of the plants that were killed,"C[…]; 40 g/ha, 26 DAA, Trial 4.5",80%
same,percentage of the plants that were killed,"C[…]; 40 g/ha, 54 DAA, Trial 4.6",44%
same,percentage of the plants that were killed,"C[…]; 40 g/ha, 56 DAA, Trial 4.11",13%
same,percentage of the plants that were killed,"COMMELINA SP.; 5 g/ha, 10 DAA, No. 3.18",30%
same,percentage of the plants that were killed,"COMMELINA SP.; 5 g/ha, 17 DAA, No. 3.19",20%
same,percentage of the plants that were killed,"COMMELINA SP.; 10 g/ha, 10 DAA, No. 3.18",50%
same,percentage of the plants that were killed,"COMMELINA SP.; 10 g/ha, 17 DAA, No. 3.19",30%
same,percentage of the plants that were killed,"COMMELINA SP.; 20 g/ha, 10 DAA, No. 3.18",58%
same,percentage of the plants that were killed,"COMMELINA SP.; 20 g/ha, 17 DAA, No. 3.19",50%
